Assay [1] concerns the target Mitogen-activated protein kinase 14 (Homo sapiens) (UniProt Q16539). Briefly: Inhibition of human truncated p38 alpha expressed in Escherichia coli cell assessed as substrate phosphorylation using fluorescence-labelled peptides as substrate at 420 uM after 90 mins by microfluidic peptide phosphorylation assay.
The target of assay [2] is Protein kinase C eta type (Homo sapiens) (UniProt P24723). Briefly: Inhibition of human truncated PKC eta expressed in baculovirus assessed as substrate phosphorylation using fluorescence-labelled peptides as substrate at 95 uM after 90 mins by microfluidic peptide phosphorylation assay.
Sequence of Protein kinase C eta type (Homo sapiens) (P24723 whole entry, the tested form may be a part): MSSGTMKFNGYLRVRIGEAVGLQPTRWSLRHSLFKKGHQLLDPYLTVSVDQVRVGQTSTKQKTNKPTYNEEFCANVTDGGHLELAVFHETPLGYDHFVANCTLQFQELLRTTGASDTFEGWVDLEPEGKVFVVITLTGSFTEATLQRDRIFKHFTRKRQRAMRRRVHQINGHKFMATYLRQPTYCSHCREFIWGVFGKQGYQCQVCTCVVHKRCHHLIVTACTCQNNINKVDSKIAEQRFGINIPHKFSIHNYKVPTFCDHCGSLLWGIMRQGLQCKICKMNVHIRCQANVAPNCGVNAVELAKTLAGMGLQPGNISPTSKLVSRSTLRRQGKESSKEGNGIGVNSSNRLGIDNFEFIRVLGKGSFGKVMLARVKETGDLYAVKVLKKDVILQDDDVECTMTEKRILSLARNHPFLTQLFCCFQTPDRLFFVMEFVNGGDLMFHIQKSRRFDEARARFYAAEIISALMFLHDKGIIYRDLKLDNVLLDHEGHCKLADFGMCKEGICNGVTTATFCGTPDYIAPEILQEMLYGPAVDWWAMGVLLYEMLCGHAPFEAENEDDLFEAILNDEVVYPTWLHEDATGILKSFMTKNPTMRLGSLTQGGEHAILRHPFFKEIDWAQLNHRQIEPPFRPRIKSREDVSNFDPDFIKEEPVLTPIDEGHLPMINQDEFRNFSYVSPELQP
The target of assay [3] is Serine/threonine-protein kinase pim-1 (Homo sapiens) (UniProt P11309). Briefly: Inhibition of human full length PIM1 expressed in baculovirus assessed as substrate phosphorylation using fluorescence-labelled peptides as substrate at 95 uM after 90 mins by microfluidic peptide phosphorylation assay.
Sequence of Serine/threonine-protein kinase pim-1 (Homo sapiens) (P11309 whole entry, looked up, the tested form may be a part): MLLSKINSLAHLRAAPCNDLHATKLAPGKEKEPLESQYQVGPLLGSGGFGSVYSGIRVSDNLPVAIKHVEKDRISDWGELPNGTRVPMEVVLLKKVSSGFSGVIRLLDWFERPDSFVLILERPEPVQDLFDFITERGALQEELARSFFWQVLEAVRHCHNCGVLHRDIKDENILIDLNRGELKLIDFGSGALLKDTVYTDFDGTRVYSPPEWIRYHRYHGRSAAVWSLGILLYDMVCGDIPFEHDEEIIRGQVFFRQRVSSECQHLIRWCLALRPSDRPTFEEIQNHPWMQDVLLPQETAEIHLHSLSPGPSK
Assay [4] has as its target Mitogen-activated protein kinase 14 (Homo sapiens) (UniProt Q16539). Briefly: Inhibition of human truncated p38 alpha expressed in Escherichia coli cell assessed as substrate phosphorylation using fluorescence-labelled peptides as substrate at 95 uM after 90 mins by microfluidic peptide phosphorylation assay.
The target in assay [5] is MAP kinase-activated protein kinase 3 (Homo sapiens) (UniProt Q16644). Briefly: Inhibition of human full length MAPKAPK3 expressed in Escherichia coli cell assessed as substrate phosphorylation using fluorescence-labelled peptides as substrate at 9 uM after 90 mins by microfluidic peptide phosphorylation assay.
Sequence of MAP kinase-activated protein kinase 3 (Homo sapiens) (Q16644 whole entry, looked up): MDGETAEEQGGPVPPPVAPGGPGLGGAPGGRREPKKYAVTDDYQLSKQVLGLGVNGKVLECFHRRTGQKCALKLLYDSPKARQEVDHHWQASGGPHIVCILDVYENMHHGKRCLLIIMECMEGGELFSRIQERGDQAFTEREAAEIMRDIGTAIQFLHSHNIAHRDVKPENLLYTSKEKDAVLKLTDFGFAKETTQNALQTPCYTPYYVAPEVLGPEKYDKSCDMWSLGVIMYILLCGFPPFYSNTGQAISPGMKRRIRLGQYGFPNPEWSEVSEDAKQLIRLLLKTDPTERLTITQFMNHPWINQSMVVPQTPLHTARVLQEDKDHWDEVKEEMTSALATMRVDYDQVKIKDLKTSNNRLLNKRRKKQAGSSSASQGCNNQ
Assay [6] concerns the target T1, cGMP-dependent protein kinase 1 (Homo sapiens) (UniProt Q13976).
T1 sequence (whole entry): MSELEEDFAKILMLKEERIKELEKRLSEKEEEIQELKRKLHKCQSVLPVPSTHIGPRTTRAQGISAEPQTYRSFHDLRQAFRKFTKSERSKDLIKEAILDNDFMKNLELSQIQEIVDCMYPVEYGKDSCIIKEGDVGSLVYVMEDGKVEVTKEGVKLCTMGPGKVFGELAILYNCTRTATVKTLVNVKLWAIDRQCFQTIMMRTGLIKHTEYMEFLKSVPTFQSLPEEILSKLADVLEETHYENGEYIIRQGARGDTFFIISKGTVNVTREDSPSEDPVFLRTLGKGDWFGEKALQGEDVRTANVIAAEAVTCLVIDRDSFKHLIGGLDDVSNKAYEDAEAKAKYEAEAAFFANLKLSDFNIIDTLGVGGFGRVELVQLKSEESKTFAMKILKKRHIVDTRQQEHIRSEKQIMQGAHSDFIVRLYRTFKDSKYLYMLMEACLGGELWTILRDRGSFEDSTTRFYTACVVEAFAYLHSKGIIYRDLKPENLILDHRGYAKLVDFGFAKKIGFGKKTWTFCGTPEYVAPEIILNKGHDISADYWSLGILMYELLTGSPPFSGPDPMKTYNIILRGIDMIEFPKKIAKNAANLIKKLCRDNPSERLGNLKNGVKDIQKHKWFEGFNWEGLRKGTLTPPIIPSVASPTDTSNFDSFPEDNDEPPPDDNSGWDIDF
Briefly: Inhibition of human full length PKG-1beta expressed in baculovirus assessed as substrate phosphorylation using fluorescence-labelled peptides as substrate at 8 uM after 90 mins by microfluidic peptide phosphorylation assay.

Assay [7] has as its target T2, Serine/threonine-protein kinase D2 (Homo sapiens) (UniProt Q9BZL6).
T2 sequence (whole entry): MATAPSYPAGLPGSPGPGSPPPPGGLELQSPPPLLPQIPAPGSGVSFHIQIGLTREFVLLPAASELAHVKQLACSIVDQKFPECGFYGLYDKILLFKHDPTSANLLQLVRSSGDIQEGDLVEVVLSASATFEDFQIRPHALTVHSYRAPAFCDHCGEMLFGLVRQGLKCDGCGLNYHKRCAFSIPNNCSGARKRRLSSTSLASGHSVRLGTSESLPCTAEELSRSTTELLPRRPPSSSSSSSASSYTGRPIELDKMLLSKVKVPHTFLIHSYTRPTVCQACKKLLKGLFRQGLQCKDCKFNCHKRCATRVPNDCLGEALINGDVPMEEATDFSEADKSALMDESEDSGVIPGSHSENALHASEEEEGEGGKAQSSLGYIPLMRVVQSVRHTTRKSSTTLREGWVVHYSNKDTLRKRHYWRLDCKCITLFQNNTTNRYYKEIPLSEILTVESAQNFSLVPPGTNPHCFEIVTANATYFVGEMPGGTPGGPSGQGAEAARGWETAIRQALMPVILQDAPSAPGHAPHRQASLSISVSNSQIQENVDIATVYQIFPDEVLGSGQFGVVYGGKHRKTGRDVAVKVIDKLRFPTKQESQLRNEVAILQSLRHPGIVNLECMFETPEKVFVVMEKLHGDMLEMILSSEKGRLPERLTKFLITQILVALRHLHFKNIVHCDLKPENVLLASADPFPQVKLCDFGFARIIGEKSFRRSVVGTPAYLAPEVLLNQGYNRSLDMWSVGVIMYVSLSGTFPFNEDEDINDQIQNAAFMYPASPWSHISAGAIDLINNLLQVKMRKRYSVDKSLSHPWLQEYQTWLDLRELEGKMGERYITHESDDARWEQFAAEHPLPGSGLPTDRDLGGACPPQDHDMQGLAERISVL
Kind of assay: Inhibition of human full length PKD2 expressed in baculovirus assessed as substrate phosphorylation using fluorescence-labelled peptides as substrate at 8 uM after 90 mins by microfluidic peptide phosphorylation assay.

The target in assay [8] is Insulin receptor (Homo sapiens) (UniProt P06213). Briefly: Inhibition of human INSR catalytic domain expressed in baculovirus assessed as substrate phosphorylation using fluorescence-labelled peptides as substrate at 1000 uM after 90 mins by microfluidic peptide phosphorylation assay.
For assay [9], the target named is Protein kinase C delta type (Homo sapiens) (UniProt Q05655). Briefly: Inhibition of human truncated PKC delta expressed in baculovirus assessed as substrate phosphorylation using fluorescence-labelled peptides as substrate at 1000 uM after 90 mins by microfluidic peptide phosphorylation assay.
Sequence of Protein kinase C delta type (Homo sapiens) (Q05655 whole entry, looked up, the tested form may be a part): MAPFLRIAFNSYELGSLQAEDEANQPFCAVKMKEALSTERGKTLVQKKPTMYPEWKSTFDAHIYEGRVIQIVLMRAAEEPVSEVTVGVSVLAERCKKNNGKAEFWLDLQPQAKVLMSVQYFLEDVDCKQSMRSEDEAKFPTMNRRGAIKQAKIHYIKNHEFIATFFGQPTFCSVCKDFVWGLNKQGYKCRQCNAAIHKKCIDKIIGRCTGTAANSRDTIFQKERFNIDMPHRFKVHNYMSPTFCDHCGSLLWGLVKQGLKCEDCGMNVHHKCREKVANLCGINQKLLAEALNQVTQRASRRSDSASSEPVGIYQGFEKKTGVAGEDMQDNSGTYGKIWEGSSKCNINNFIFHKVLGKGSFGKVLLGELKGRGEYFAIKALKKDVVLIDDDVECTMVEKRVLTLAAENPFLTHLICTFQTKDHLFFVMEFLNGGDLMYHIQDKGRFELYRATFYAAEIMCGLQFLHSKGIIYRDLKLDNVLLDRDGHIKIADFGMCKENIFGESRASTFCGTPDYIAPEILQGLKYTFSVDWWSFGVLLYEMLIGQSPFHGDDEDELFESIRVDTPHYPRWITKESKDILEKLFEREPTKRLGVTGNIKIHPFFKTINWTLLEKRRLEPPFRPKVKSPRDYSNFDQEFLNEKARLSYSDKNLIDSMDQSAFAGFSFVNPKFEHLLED
In assay [10] the target is Serine/threonine-protein kinase Chk2 (Homo sapiens) (UniProt O96017). Kind of assay: Inhibition of human full length CHK2 expressed in baculovirus assessed as substrate phosphorylation using fluorescence-labelled peptides as substrate at 0.06 uM after 90 mins by microfluidic peptide phosphorylation assay.
Sequence of Serine/threonine-protein kinase Chk2 (Homo sapiens) (O96017 whole entry, the tested form may be a part, canonical isoform): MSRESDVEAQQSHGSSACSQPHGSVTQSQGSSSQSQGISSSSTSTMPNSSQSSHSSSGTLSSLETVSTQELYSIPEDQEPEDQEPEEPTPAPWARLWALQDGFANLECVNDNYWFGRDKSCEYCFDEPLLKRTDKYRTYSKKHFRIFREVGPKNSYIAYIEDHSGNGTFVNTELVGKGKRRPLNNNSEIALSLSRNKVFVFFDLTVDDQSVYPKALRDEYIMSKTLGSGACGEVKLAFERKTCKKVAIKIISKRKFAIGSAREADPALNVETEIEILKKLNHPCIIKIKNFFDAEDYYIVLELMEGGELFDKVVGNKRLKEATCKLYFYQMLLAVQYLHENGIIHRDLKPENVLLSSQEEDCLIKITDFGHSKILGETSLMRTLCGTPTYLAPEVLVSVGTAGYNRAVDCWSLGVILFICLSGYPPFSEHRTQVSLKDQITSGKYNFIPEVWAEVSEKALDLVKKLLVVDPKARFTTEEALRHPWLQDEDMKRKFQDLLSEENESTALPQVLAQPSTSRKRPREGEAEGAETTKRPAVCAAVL
The target in assay [11] is Casein kinase I isoform delta (Homo sapiens) (UniProt P48730). Kind of assay: Inhibition of human CK1D catalytic domain expressed in Escherichia coli cell assessed as substrate phosphorylation using fluorescence-labelled peptides as substrate at 0.06 uM after 90 mins by microfluidic peptide phosphorylation assay.
Sequence of Casein kinase I isoform delta (Homo sapiens) (P48730 whole entry, looked up, the tested form may be a part, canonical isoform): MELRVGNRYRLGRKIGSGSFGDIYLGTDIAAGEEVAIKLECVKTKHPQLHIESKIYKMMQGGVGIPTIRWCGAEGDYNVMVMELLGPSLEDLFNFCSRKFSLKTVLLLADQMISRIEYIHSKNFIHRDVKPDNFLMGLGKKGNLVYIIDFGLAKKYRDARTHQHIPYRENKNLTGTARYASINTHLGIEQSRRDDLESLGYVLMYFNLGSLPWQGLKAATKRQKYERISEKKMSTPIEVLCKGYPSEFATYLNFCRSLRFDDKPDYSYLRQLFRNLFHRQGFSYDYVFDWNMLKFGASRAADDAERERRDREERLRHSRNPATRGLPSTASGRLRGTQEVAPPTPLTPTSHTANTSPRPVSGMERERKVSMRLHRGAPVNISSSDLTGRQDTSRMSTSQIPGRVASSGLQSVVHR

Sequence of Mitogen-activated protein kinase 14 (Homo sapiens) (Q16539 whole entry, the tested form may be a part): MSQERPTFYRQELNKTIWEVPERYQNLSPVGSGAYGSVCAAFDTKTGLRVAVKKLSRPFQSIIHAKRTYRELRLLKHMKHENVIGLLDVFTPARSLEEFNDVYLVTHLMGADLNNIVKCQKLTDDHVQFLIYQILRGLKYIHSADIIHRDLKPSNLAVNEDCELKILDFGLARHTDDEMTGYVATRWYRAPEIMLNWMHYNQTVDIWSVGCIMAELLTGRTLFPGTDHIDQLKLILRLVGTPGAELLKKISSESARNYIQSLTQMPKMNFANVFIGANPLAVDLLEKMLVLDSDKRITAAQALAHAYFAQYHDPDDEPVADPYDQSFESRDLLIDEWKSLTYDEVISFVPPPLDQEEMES

The term inhibition denotes the drop in the measured response relative to a control, in per cent. With `c1nc(N2CCOCC2)c2nc[nH]c2n1`, in assay [1], the inhibition came out at 0%.

Turning to `NCCc1ccc(-c2ncnc3[nH]cnc23)cc1`, the inhibition in assay [2] is 86.5%; in assay [3], 42.5%; in assay [4] it was 6.5%.

In the case of `NCC1CN(c2ncnc3[nH]c4cnccc4c23)CCO1` (stereo unspecified), the inhibition in assay [5] was found to be 74%.

Turning to `NCC1CCN(c2ncnc3[nH]ccc23)CC1`, the results for the inhibition in assay [6] and in assay [7] were 76.5% and 28.5%, respectively.

Turning to `c1cnc2[nH]ccc2c1`, the inhibition is 29% in assay [8] and 45.5% in [9].

For the compound `NC1(Cc2ccc(Cl)cc2)CCN(c2ncnc3[nH]ccc23)CC1`, the inhibition in assay [10] is 0%; in assay [11], 0.5%.

Values taken from ChEMBL document CHEMBL3132769, “Fragment growing to retain or alter the selectivity of anchored kinase hinge-binding fragments” (Medchemcomm, 2014).
